Experimental data published in patent publication US20250176599A1, “FLAVOR COMPOSITION AND FOOD AND BEVERAGE” (TAKASAGO INTERNATIONAL CORPORATION, priority 2021, published 2025).

Legend:
[1] = Sensory evaluation of aqueous solution IV containing 1,5-octadien-3-one 100 ppt: off-flavor intensity and masking component intensity; settings: aqueous solution IV, average panel score
In short: (§1)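 Relative off-flavor ratings (0–4) used the unmasked degradant solution as 4 and pure ion-exchanged water as 0. Intensity of the added nootkatone was scored absolutely, 0–4, by eight experienced panelists.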

[2] = Sensory evaluation of aqueous solution I containing (E)-2-nonenal 1 ppb: off-flavor intensity and masking component intensity; settings: average panel score
In short: as §1

[3] = Sensory evaluation of aqueous solution III containing 1-octen-3-one 1 ppb: off-flavor intensity and masking component intensity; settings: average panel score
In short: as §1

[4] = Sensory evaluation of aqueous solution V containing 1-octen-3-ol 10 ppb: off-flavor intensity and masking component intensity; settings: average panel score
In short: as §1

[5] = Overall conclusion of the sensory evaluation across aqueous solutions I to VI
In short: as §1

[6] = Sensory evaluation of aqueous solution II containing (E)-2-octenal 10 ppb: off-flavor intensity and masking component intensity; settings: average panel score
In short: as §1

[7] = Sensory evaluation of aqueous solution VI containing 1,5-octadien-3-ol 10 ppb: off-flavor intensity and masking component intensity; settings: aqueous solution VI, average panel score
In short: as §1

CC(C)C=C(C=O)c1ccccc1 [4-methyl-2-phenyl-2-pentenal]
Masking Component Intensity ([1]; 1 ppb added): 0.4 | Off-Flavor Intensity ([1]; 1 ppb added): 3.6 | Masking Component Intensity ([1]; 1 ppm added): 1.9 | Off-Flavor Intensity ([1]; 1 ppm added): 2.3 | Masking Component Intensity ([1]; 5 ppm added): 2.3 | Off-Flavor Intensity ([1]; 5 ppm added): 2.0 | Masking Component Intensity ([1]; 10 ppb added): 1.0 | Off-Flavor Intensity ([1]; 10 ppb added): 3.0 | Masking Component Intensity ([1]; 10 ppm added): 3.0 | Off-Flavor Intensity ([1]; 10 ppm added): 1.4 | Masking Component Intensity ([1]; 50 ppm added): 3.6 | Off-Flavor Intensity ([1]; 50 ppm added): 1.0 | Masking Component Intensity ([1]; 100 ppb added): 1.4 | Off-Flavor Intensity ([1]; 100 ppb added): 2.6 | Masking Component Intensity ([1]; 100 ppt added): 0.3 | Off-Flavor Intensity ([1]; 100 ppt added): 3.6 | Masking Component Intensity ([2]; 1 ppb added): 0.5 | Off-Flavor Intensity ([2]; 1 ppb added): 2.8 | Masking Component Intensity ([2]; 1 ppm added): 1.9 | Off-Flavor Intensity ([2]; 1 ppm added): 1.6 | Masking Component Intensity ([2]; 5 ppm added): 2.9 | Off-Flavor Intensity ([2]; 5 ppm added): 1.1 | Masking Component Intensity ([2]; 10 ppb added): 0.9 | Off-Flavor Intensity ([2]; 10 ppb added): 2.3 | Masking Component Intensity ([2]; 10 ppm added): 3.8 | Off-Flavor Intensity ([2]; 10 ppm added): 0.5 | Masking Component Intensity ([2]; 50 ppm added): 4.0 | Off-Flavor Intensity ([2]; 50 ppm added): 0.3 | Masking Component Intensity ([2]; 100 ppb added): 1.4 | Off-Flavor Intensity ([2]; 100 ppb added): 1.8 | Masking Component Intensity ([2]; 100 ppt added): 0.4 | Off-Flavor Intensity ([2]; 100 ppt added): 3.3 | Masking Component Intensity ([3]; 1 ppb added): 0.9 | Off-Flavor Intensity ([3]; 1 ppb added): 3.4 | Masking Component Intensity ([3]; 1 ppm added): 2.5 | Off-Flavor Intensity ([3]; 1 ppm added): 2.1 | Masking Component Intensity ([3]; 5 ppm added): 3.0 | Off-Flavor Intensity ([3]; 5 ppm added): 1.8 | Masking Component Intensity ([3]; 10 ppb added): 1.4 | Off-Flavor Intensity ([3]; 10 ppb added): 3.1 | Masking Component Intensity ([3]; 10 ppm added): 3.5 | Off-Flavor Intensity ([3]; 10 ppm added): 1.6 | Masking Component Intensity ([3]; 50 ppm added): 3.8 | Off-Flavor Intensity ([3]; 50 ppm added): 1.3 | Masking Component Intensity ([3]; 100 ppb added): 1.8 | Off-Flavor Intensity ([3]; 100 ppb added): 2.6 | Masking Component Intensity ([3]; 100 ppt added): 0.5 | Off-Flavor Intensity ([3]; 100 ppt added): 3.6 | Masking Component Intensity ([4]; 1 ppb added): 0.8 | Off-Flavor Intensity ([4]; 1 ppb added): 2.3 | Masking Component Intensity ([4]; 1 ppm added): 2.4 | Off-Flavor Intensity ([4]; 1 ppm added): 1.1 | Masking Component Intensity ([4]; 5 ppm added): 2.8 | Off-Flavor Intensity ([4]; 5 ppm added): 0.8 | Masking Component Intensity ([4]; 10 ppb added): 1.4 | Off-Flavor Intensity ([4]; 10 ppb added): 1.8 | Masking Component Intensity ([4]; 10 ppm added): 3.5 | Off-Flavor Intensity ([4]; 10 ppm added): 0.6 | Masking Component Intensity ([4]; 50 ppm added): 3.9 | Off-Flavor Intensity ([4]; 50 ppm added): 0.5 | Masking Component Intensity ([4]; 100 ppb added): 1.6 | Off-Flavor Intensity ([4]; 100 ppb added): 1.6 | Masking Component Intensity ([4]; 100 ppt added): 0.6 | Off-Flavor Intensity ([4]; 100 ppt added): 2.8 | concentration that masks the off-flavor and does not affect the flavor of the food and/or beverage itself, lower limit [5]: ≥ 100 ppt | concentration that masks the off-flavor and does not affect the flavor of the food and/or beverage itself, upper limit [5]: ≤ 10 ppm | Masking Component Intensity ([6]; 1 ppb added): 0.5 | Off-Flavor Intensity ([6]; 1 ppb added): 2.8 | Masking Component Intensity ([6]; 1 ppm added): 2.1 | Off-Flavor Intensity ([6]; 1 ppm added): 1.6 | Masking Component Intensity ([6]; 5 ppm added): 2.6 | Off-Flavor Intensity ([6]; 5 ppm added): 1.4 | Masking Component Intensity ([6]; 10 ppb added): 1.1 | Off-Flavor Intensity ([6]; 10 ppb added): 2.5 | Masking Component Intensity ([6]; 10 ppm added): 3.4 | Off-Flavor Intensity ([6]; 10 ppm added): 1.0 | Masking Component Intensity ([6]; 50 ppm added): 3.9 | Off-Flavor Intensity ([6]; 50 ppm added): 0.6 | Masking Component Intensity ([6]; 100 ppb added): 1.6 | Off-Flavor Intensity ([6]; 100 ppb added): 2.0 | Masking Component Intensity ([6]; 100 ppt added): 0.4 | Off-Flavor Intensity ([6]; 100 ppt added): 3.0 | Masking Component Intensity ([7]; 1 ppb added): 0.3 | Off-Flavor Intensity ([7]; 1 ppb added): 1.8 | Masking Component Intensity ([7]; 1 ppm added): 1.8 | Off-Flavor Intensity ([7]; 1 ppm added): 0.9 | Masking Component Intensity ([7]; 5 ppm added): 2.4 | Off-Flavor Intensity ([7]; 5 ppm added): 0.4 | Masking Component Intensity ([7]; 10 ppb added): 0.8 | Off-Flavor Intensity ([7]; 10 ppb added): 1.4 | Masking Component Intensity ([7]; 10 ppm added): 3.1 | Off-Flavor Intensity ([7]; 10 ppm added): 0.4 | Masking Component Intensity ([7]; 50 ppm added): 3.5 | Off-Flavor Intensity ([7]; 50 ppm added): 0.1 | Masking Component Intensity ([7]; 100 ppb added): 1.3 | Off-Flavor Intensity ([7]; 100 ppb added): 1.0 | Masking Component Intensity ([7]; 100 ppt added): 0.0 | Off-Flavor Intensity ([7]; 100 ppt added): 2.1
